Legend:
Type in all cases: cell-based, human
[1] = tested on: E-selectin; experiment: TNF-α-induced E-selectin cell surface expression in HMVEC, flow cytometry
Description: (§1) Human dermal microvascular cells (HMVEC-d; Clonetics, San Diego, Calif.) were cultivated in endothelial basal media (EBM, Clonetics) supplemented with 10% fetal bovine serum (HyClone, Logan, Utah). Cells were grown in 100 mm petri dishes until 70-80% confluent, then washed with PBS and OPTI-MEM (Life Technologies, Inc., Gaithersburg, Md.). The cells were then incubated in the presence of OPTI-MEM and […] LIPOFECTIN (a 1:1 (w/w) liposome formulation of the cationic lipid N-[1-(2,3-dioleyloxy)propyl]-n,n,n-trimethylammonium chloride (DOTMA), and dioleoyl phosphotidylethanolamine (DOPE) in membrane filtered water (Life Technologies, Gaithersburg, Md.), per 100 nM of oligonucleotide followed by addition of oligonucleotide at the appropriate concentrations.
(§2) The effect of c-raf and Ha-ras antisense oligonucleotide treatment on the induction of E-selectin by TNF-α was examined. HMVEC cells were treated with either the c-raf or Ha-ras antisense compound under dose-response conditions or over time at a single dose level followed by stimulation of E-selectin expression by TNF-α for 5 hours. The cell surface expression of E-selectin was determined by flow cytometry analysis. Following oligonucleotide treatment, cells were detached from the plates and analyzed for surface expression of cell adhesion molecules using a Becton Dickinson (San Jose, Calif.) FACScan. TNF-α and FITC conjugated antibody for E-selectin were obtained from R & D Systems (Minneapolis, Minn.). PE-conjugated antibody for ICAM-1 was obtained from Pharmingen (San Diego, Calif.). VCAM-1 antibody was obtained from Santa Cruz Biotechnology, Santa Cruz, Calif. Cell surface expression was calculated using the mean value of fluorescence intensity using 3,000-5,000 cells stained with the appropriate antibody for each sample and time point. Results are expressed as percentage of control (cell surface expression induced by TNF-α in cells that were not treated with oligonucleotides) based upon mean fluorescence intensity.
The effects of c-raf, Ha-ras, and a E-selectin antisense oligonucleotide on TNF-α-induced E-selectin cell surface expression under kinetic conditions were examined. […] To test this, cells were treated, separately, with antisense oligonucleotides to E-selectin, ICAM-1 and VCAM-1 and allowed to recover prior to TNF-α treatment. […] E-selectin cell surface expression was measured by flow cytometry analysis after 5 hours of TNF-A treatment.

[2] = tested on: ICAM-1 mRNA; experiment: TNF-α-induced ICAM-1 mRNA, Northern blot; conditions: 48 hrs recovery, TNF-α two to three hours before RNA analysis
Description: (§3) For determination of mRNA levels by Northern blot, total RNA was prepared from cells by the guanidinium isothiocyanate procedure or by the Qiagen RNAEASY method (Qiagen, Santa Clarita, Calif.) at the indicated times after initiation of oligonucleotide treatment. Northern blot analysis was performed as described in Current Protocols in Molecular Biology (Ausubel, F. M., et al., (eds), 1987, Greene Publishing Assoc. and Wiley Interscience, New York). A glyceraldehyde 3-phosphate dehydrogenase (G3PDH) probe was purchased from Clontech (Palo Alto, Calif., Catalog Number 9805-1). RNA was quantified and normalized to G3PDH mRNA levels using a Molecular Dynamic PHOSPHORIMAGER (Sunnyvale, Calif.).
(§4) Northern blot analysis was carried out to examine whether c-raf and Ha-ras antisense oligonucleotides inhibit the induction of cell adhesion molecules at the transcriptional level. Cells were treated with c-raf (ISIS 12854, SEQ ID NO. 2) or Ha-ras (ISIS 15168, SEQ ID NO. 4) antisense oligonucleotides and allowed to recover for 48 hrs. TNF-α was added two to three hours prior to RNA analysis and Northern blotting was performed with probes specific for E-selectin, ICAM-1, and VCAM-1. The probe for E-selectin was obtained by PCR amplification using primers directed to HUMELAM1A (Genbank Accession No. M24736; SEQ ID NO. 18).

[3] = tested on: c-raf mRNA; experiment: c-raf mRNA levels by Northern blot in HMVEC
Description: as §1, §3
ISIS 12854 (SEQ ID NO. 2) is a 2'-O-methoxyethyl mixed backbone chimeric antisense oligonucleotide designed to hybridize with 3'-untranslated sequences contained within human c-raf mRNA. To determine whether this antisense oligonucleotide is effective as a c-raf inhibitor in endothelial cells, human dermal microvascular cells (HMVEC) were treated with ISIS 12854 (SEQ ID NO. 2) as described in Example 2. C-raf mRNA and protein expression was examined by northern and Western blot analysis. The c-raf cDNA probe was generated from the plasmid, p627 (American Type Culture Collection, Manassas, Va.; catalog #41050), following the supplied instructions. The c-raf antibody was obtained from Transduction Laboratories, Inc. (Lexington, Ky.).

[4] = tested on: VCAM-1; experiment: TNF-α-induced VCAM-1 cell surface expression in HMVEC, flow cytometry
Description: as §1
as §2, with “intensity. Basal expression of E-selectin and VCAM-1 is undetectable in the absence of TNF-α whereas a low level of basal expression is detectable for ICAM-1.” for “intensity.”
(§5) TNF-α induction of ICAM-1 and VCAM-1 in cells treated with c-raf and Ha-ras antisense oligonucleotides was also examined to further define the roles of c-raf and Ha-ras in cytokine signaling. Oligonucleotides were tested, using flow cytometry analysis, as described in Example 4. Results are shown in Table 6 (ICAM-1) and Table 7 (VCAM-1).

[5] = tested on: E-selectin mRNA; experiment: TNF-α-induced E-selectin mRNA, Northern blot; conditions: 48 hrs recovery, TNF-α two to three hours before RNA analysis
Description: as §3, §4

[6] = tested on: ICAM-1; experiment: TNF-α-induced ICAM-1 cell surface expression in HMVEC, flow cytometry
Description: as §1
as §2, with “intensity. Basal expression of E-selectin and VCAM-1 is undetectable in the absence of TNF-α whereas a low level of basal expression is detectable for ICAM-1.” for “intensity.”
as §5

[7] = tested on: VCAM-1 mRNA; experiment: TNF-α-induced VCAM-1 mRNA, Northern blot; conditions: 48 hrs recovery, TNF-α two to three hours before RNA analysis
Description: as §3, §4

[8] = tested on: JNK1; experiment: TNF-α-mediated JNK1 kinase activity, isoform-specific JNK assay; conditions: FIG. 5
Description: To examine the effect of the c-raf antisense oligonucleotide (ISIS 12854, SEQ ID NO. 2) on ERK, JNK, and p38 MAPK activities stimulated by TNF-α, in vitro kinase assays were performed on extracts derived from cells treated with ISIS 12854 (SEQ ID NO. 2). Cells were treated with oligonucleotides and induced with cytokines. At the indicated time, cells were lysed on ice and debris was removed by centrifugation. Protein concentration was measured by Bradford assay. Lysate containing equal amounts of protein were incubated with primary antibody-agarose conjugates (ERK and p38 assay; Santa Cruz Biotechnology, Santa Cruz, Calif.), or with JNK1-specific or JNK2-specific antibodies (JNK assay; Upstate Biotechnology, Lake Placid, N.Y.), overnight at 4° C.
For isoform-specific JNK assays, anti-rabbit IgG conjugated with agarose beads was added to cell extracts following JNK antibody treatment and wash steps and incubated for 2 hours at 4° C. After washing with lysis buffer and kinase buffer, the pelleted beads were incubated with 1 μg of substrate (Elk-1 for ERK, ATF-2 for p38, and c-Jun for JNK MAPK) and 100 […] of ATP for 20 minutes at 37° C. MAPK and JNK assay kits, ATF-2 fusion protein, and antibodies for ATF-2, Elk-1 phospho-ATF-2 were purchased from New England BioLabs (Boston, Mass.). Reactions were terminated by the addition of 3×SDS sample buffer followed by boiling. […]

[9] = tested on: JNK1 mRNA; experiment: JNK1 mRNA expression by Northern blot; conditions: at the concentration tested, FIG. 4
Description: as §1
For determination of mRNA levels by Northern blot, total RNA was prepared from cells by the guanidinium isothiocyanate procedure or by the Qiagen RNAEASY method (Qiagen, Santa Clarita, Calif.) at the indicated times after initiation of oligonucleotide treatment. Northern blot analysis was performed as described in Current Protocols in Molecular Biology (Ausubel, F. M., et al., (eds), 1987, Greene Publishing Assoc. and Wiley Interscience, New York). […] RNA was quantified and normalized to G3PDH mRNA levels using a Molecular Dynamic PHOSPHORIMAGER (Sunnyvale, Calif.). […]

[10] = time course, 12 h/20 h after oligonucleotide treatment, TNF-α 5 hours
[11] = time course, 48 h after oligonucleotide treatment, TNF-α 5 hours
[12] = time course, 72 h after oligonucleotide treatment, TNF-α 5 hours
[13] = Table 9, JNK antisense series, 20 nM
[14] = Table 9, JNK antisense series, 50 nM
[15] = Table 9, JNK antisense series, 100 nM

Substance: GsAsAsGsTsCsAsGsCsCsAsAsGsAsAsCsAsGsCsT (GAAGTCAGCCAAGAACAGCT; all phosphorothioate, sugars by position and methylation of C not given here) [ISIS 11928, fully phosphorothioated oligonucleotide with all 2'-methoxyethoxy nucleotides except a 3' terminal 2'-deoxy nucleotide, antisense to E-selectin]
- block of E-selectin cell surface expression ([1]; concentrations as low as 20 nM, 12 hours following treatment): 80%
- % Cell Surface Expression (E-selectin) [1, 10]: 22%
- % Cell Surface Inhibition (E-selectin) [1, 10]: 78%
- % Cell Surface Expression (E-selectin) [1, 11]: 29%
- % Cell Surface Inhibition (E-selectin) [1, 11]: 71%
- % Cell Surface Expression (E-selectin) [1, 12]: 32%
- % Cell Surface Inhibition (E-selectin) [1, 12]: 68%

Substance: AoToGoCoAoTsTsCsTsGsCsCsCsCsCoAoAoGoGoA [ISIS 15727, reference compound]
- % mRNA Expression (ICAM-1) [2]: 107%
- effect on c-raf mRNA [3]: did not exhibit any effect
- % mRNA Expression (c-raf) ([3]; 100 nM): 96%
- % mRNA Inhibition (c-raf) ([3]; 100 nM): 4%
- % mRNA Expression (c-raf) ([3]; 200 nM): 135%
- % Cell Surface Expression (VCAM-1) ([4]; 20 nM): 69%
- % Cell Surface Inhibition (VCAM-1) ([4]; 20 nM): 31%
- % Cell Surface Expression (VCAM-1) ([4]; 50 nM): 81%
- % Cell Surface Inhibition (VCAM-1) ([4]; 50 nM): 19%
- % Cell Surface Expression (VCAM-1) ([4]; 100 nM): 74%
- % Cell Surface Inhibition (VCAM-1) ([4]; 100 nM): 26%
- % mRNA Expression (E-selectin) [5]: 103%
- % Cell Surface Expression (E-selectin) ([1]; 25 nM, TNF-α for 5 hours, % of control): 119%
- % Cell Surface Inhibition (E-selectin) ([1]; 75 nM, TNF-α for 5 hours): 6%
- % Cell Surface Expression (E-selectin) ([1]; 75 nM, TNF-α for 5 hours, % of control): 94%
- % Cell Surface Expression (E-selectin) ([1]; 150 nM, TNF-α for 5 hours, % of control): 106%
- % Cell Surface Expression (E-selectin) [1, 13]: 137%
- % Cell Surface Expression (E-selectin) [1, 14]: 128%
- % Cell Surface Expression (E-selectin) [1, 15]: 124%
- effect on E-selectin induction ([1]; dose response, HMVEC): little to no effect
- % Cell Surface Expression (E-selectin) [1, 10]: 93%
- % Cell Surface Inhibition (E-selectin) [1, 10]: 7%
- % Cell Surface Expression (E-selectin) [1, 11]: 106%
- % Cell Surface Expression (E-selectin) [1, 12]: 81%
- % Cell Surface Inhibition (E-selectin) [1, 12]: 19%
- % Cell Surface Expression (ICAM-1) ([6]; 20 nM): 97%
- % Cell Surface Inhibition (ICAM-1) ([6]; 20 nM): 3%
- % Cell Surface Expression (ICAM-1) ([6]; 50 nM): 89%
- % Cell Surface Inhibition (ICAM-1) ([6]; 50 nM): 11%
- % Cell Surface Expression (ICAM-1) ([6]; 100 nM): 87%
- % Cell Surface Inhibition (ICAM-1) ([6]; 100 nM): 13%
- % mRNA Expression (VCAM-1) [7]: 113%

Substance: CoToCoToCoTsGsTsAsGsGsCsCsCsGsCoToToGoG [ISIS 15347]
- TNF-α-mediated induction of JNK1 activity [8]: effectively reduced
- % Cell Surface Expression (E-selectin) [1, 13]: 89%
- % Cell Surface Inhibition (E-selectin) [1, 13]: 11%
- % Cell Surface Expression (E-selectin) [1, 14]: 84%
- % Cell Surface Inhibition (E-selectin) [1, 14]: 16%
- % Cell Surface Expression (E-selectin) [1, 15]: 82%
- % Cell Surface Inhibition (E-selectin) [1, 15]: 18%
- JNK1 mRNA expression [9]: nearly complete inhibition

Source: patent US6114517A, “Methods of modulating tumor necrosis factor α-induced expression of cell adhesion molecules” (Isis Pharmaceuticals Inc., priority 1998, dated 2000)
